Data from patent US9346786B2, “Pyrrolidine compounds” (Hoffmann-La Roche Inc., priority 2009, dated 2016).

Each compound was assayed against recombinant human NK3 receptor (Homo sapiens (Human), UniProt P29371) (assay: biochemical). Conditions: [3H]SR142801, membranes of HEK293 cells transiently expressing recombinant human NK3 receptor; read-out: Data Ki (hNK-3 receptor affinity).
recombinant human NK3 receptor, sequence (P29371 whole entry): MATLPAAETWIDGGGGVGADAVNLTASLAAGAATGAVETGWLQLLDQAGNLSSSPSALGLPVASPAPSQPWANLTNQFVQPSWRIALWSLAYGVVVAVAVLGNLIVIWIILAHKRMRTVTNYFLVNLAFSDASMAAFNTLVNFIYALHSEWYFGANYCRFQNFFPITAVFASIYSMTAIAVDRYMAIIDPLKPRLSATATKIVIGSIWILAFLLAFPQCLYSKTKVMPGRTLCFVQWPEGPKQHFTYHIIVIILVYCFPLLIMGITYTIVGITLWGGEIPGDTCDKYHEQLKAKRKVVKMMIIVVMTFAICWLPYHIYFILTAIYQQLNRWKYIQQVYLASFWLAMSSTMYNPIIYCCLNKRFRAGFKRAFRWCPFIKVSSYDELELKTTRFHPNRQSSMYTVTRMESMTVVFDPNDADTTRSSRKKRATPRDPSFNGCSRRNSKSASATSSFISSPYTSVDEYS
Format: binding
`CCN(C(=O)Oc1ccc(F)cc1)[C@@H]1CN(C(=O)C2CCN(c3ccc(S(C)(=O)=O)cn3)CC2)C[C@H]1c1ccc(F)c(F)c1` [Example 64, [(3S,4R)-4-(3,4-Difluoro-phenyl)-1-(5′-methanesulfonyl-3,4,5,6-tetrahydro-2H-[1,2′]bipyridinyl-4-carbonyl)-pyrrolidin-3-yl]-ethyl-carbamic acid 4-fluoro-phenyl ester] was tested, and the Ki was 5 nM. In the case of `CCN(C(=O)Oc1ccc(F)cc1)[C@@H]1CN(C(=O)C2CCN(C(=O)C3(C)COC3)CC2)C[C@H]1c1ccc(Cl)c(F)c1` [Example 65, {(3S,4R)-4-(4-Chloro-3-fluoro-phenyl)-1-[1-(3-methyl-oxetane-3-carbonyl)-piperidine-4-carbonyl]-pyrrolidin-3-yl}-ethyl-carbamic acid 4-fluoro-phenyl ester], the Ki is reported as 3 nM. In the case of `CCN(C(=O)Oc1ccc(F)cc1)[C@@H]1CN(C(=O)C2CCN(C(=O)C3CC(F)(F)C3)CC2)C[C@H]1c1ccc(Cl)c(F)c1` [Example 66, {(3S,4R)-4-(4-Chloro-3-fluoro-phenyl)-1-[1-(3,3-difluoro-cyclobutanecarbonyl)-piperidine-4-carbonyl]-pyrrolidin-3-yl}-ethyl-carbamic acid 4-fluoro-phenyl ester], the Ki is reported as 1 nM. `CCN(C(=O)Oc1ccc(F)cc1)[C@@H]1CN(C(=O)C2CCN(C(=O)C3CCC3)CC2)C[C@H]1c1ccc(Cl)c(F)c1` [Example 67, [(3S,4R)-4-(4-Chloro-3-fluoro-phenyl)-1-(1-cyclobutanecarbonyl-piperidine-4-carbonyl)-pyrrolidin-3-yl]-ethyl-carbamic acid 4-fluoro-phenyl ester] showed a Ki of 2 nM. With `CCN(C(=O)Oc1ccc(F)cc1)[C@@H]1CN(C(=O)C2CCN(C(=O)C3(C(F)(F)F)CCC3)CC2)C[C@H]1c1ccc(Cl)c(F)c1` [Example 68, {(3S,4R)-4-(4-Chloro-3-fluoro-phenyl)-1-[1-(1-trifluoromethyl-cyclobutanecarbonyl)-piperidine-4-carbonyl]-pyrrolidin-3-yl}-ethyl-carbamic acid 4-fluoro-phenyl ester] the Ki was 2 nM. Work on `CCN(C(=O)Oc1ccc(F)cc1)[C@@H]1CN(C(=O)C2CCN(C(=O)C3CC(F)C3)CC2)C[C@H]1c1ccc(Cl)c(F)c1` (stereo partly drawn) [Example 69, {(3S,4R)-4-(4-Chloro-3-fluoro-phenyl)-1-[1-(3-fluoro-cyclobutanecarbonyl)-piperidine-4-carbonyl]-pyrrolidin-3-yl}-ethyl-carbamic acid 4-fluoro-phenyl ester] yielded a Ki of 2 nM. `CCN(C(=O)Oc1ccc(F)cc1)[C@@H]1CN(C(=O)C2CCN(C(=O)C3CC3(F)F)CC2)C[C@H]1c1ccc(Cl)c(F)c1` (stereo partly drawn) [Example 70, {(3S,4R)-4-(4-Chloro-3-fluoro-phenyl)-1-[1-(2,2-difluoro-cyclopropanecarbonyl)-piperidine-4-carbonyl]-pyrrolidin-3-yl}-ethyl-carbamic acid 4-fluoro-phenyl ester] was tested, and the Ki was 4 nM. With `CCN(C(=O)Oc1ccc(F)cc1)[C@@H]1CN(C(=O)C2CCN(C(=O)c3ccc(C(F)(F)F)cn3)CC2)C[C@H]1c1ccc(Cl)c(F)c1` [Example 74, {(3S,4R)-4-(4-Chloro-3-fluoro-phenyl)-1-[1-(5-trifluoromethyl-pyridine-2-carbonyl)-piperidine-4-carbonyl]-pyrrolidin-3-yl}-ethyl-carbamic acid 4-fluoro-phenyl ester] the Ki was 12 nM. Compound `CCN(C(=O)Oc1ccc(F)cc1)[C@@H]1CN(C(=O)C2CCN(C(=O)c3ccc(F)cn3)CC2)C[C@H]1c1ccc(Cl)c(F)c1` [Example 75, {(3S,4R)-4-(4-Chloro-3-fluoro-phenyl)-1-[1-(5-fluoro-pyridine-2-carbonyl)-piperidine-4-carbonyl]-pyrrolidin-3-yl}-ethyl-carbamic acid 4-fluoro-phenyl ester] has a Ki of 3 nM. `CCN(C(=O)Oc1ccc(F)cc1)[C@@H]1CN(C(=O)C2CCN(C(=O)c3ccc(C#N)cc3)CC2)C[C@H]1c1ccc(Cl)c(F)c1` [Example 76, {(3S,4R)-4-(4-Chloro-3-fluoro-phenyl)-1-[1-(4-cyano-benzoyl)-piperidine-4-carbonyl]-pyrrolidin-3-yl}-ethyl-carbamic acid 4-fluoro-phenyl ester] showed a Ki of 17 nM. Compound `CCN(C(=O)Oc1ccc(F)cc1)[C@@H]1CN(C(=O)C2CCN(C(=O)c3cnc(C(F)(F)F)cn3)CC2)C[C@H]1c1ccc(Cl)c(F)c1` [Example 78, {(3S,4R)-4-(4-Chloro-3-fluoro-phenyl)-1-[1-(5-trifluoromethyl-pyrazine-2-carbonyl)-piperidine-4-carbonyl]-pyrrolidin-3-yl}-ethyl-carbamic acid 4-fluoro-phenyl ester] has a Ki of 5 nM. With `CCN(C(=O)Oc1ccc(F)cc1)[C@@H]1CN(C(=O)C2CCN(C(=O)c3ccc(C#N)nc3)CC2)C[C@H]1c1ccc(Cl)c(F)c1` [Example 79, {(3S,4R)-4-(4-Chloro-3-fluoro-phenyl)-1-[1-(6-cyano-pyridine-3-carbonyl)-piperidine-4-carbonyl]-pyrrolidin-3-yl}-ethyl-carbamic acid 4-fluoro-phenyl ester] the Ki was 8 nM. `CCN(C(=O)Oc1ccc(F)cc1)[C@@H]1CN(C(=O)C2CCN(C(C)=O)CC2)C[C@H]1c1ccc(Cl)c(F)c1` [Example 80, [(3S,4R)-1-(1-Acetyl-piperidine-4-carbonyl)-4-(4-chloro-3-fluoro-phenyl)-pyrrolidin-3-yl]-ethyl-carbamic acid 4-fluoro-phenyl ester] showed a Ki of 2 nM. Work on `CCN(C(=O)Oc1ccc(F)cc1)[C@@H]1CN(C(=O)C2CCN(S(C)(=O)=O)CC2)C[C@H]1c1ccc(Cl)c(F)c1` [Example 81, [(3S,4R)-4-(4-Chloro-3-fluoro-phenyl)-1-(1-methanesulfonyl-piperidine-4-carbonyl)-pyrrolidin-3-yl]-ethyl-carbamic acid 4-fluoro-phenyl ester] yielded a Ki of 29 nM. Work on `CCN(C(=O)Oc1ccc(F)cc1)[C@@H]1CN(C(=O)C2CCN(C(C)=O)CC2)C[C@H]1c1ccc(Cl)cc1` [Example 82, [(3S,4R)-1-(1-Acetyl-piperidine-4-carbonyl)-4-(4-chloro-phenyl)-pyrrolidin-3-yl]-ethyl-carbamic acid 4-fluoro-phenyl ester] yielded a Ki of 8.2 nM. `CCN(C(=O)Oc1ccc(F)cc1)[C@@H]1CN(C(=O)C2CCN(c3ccc(C(C)(C)O)cn3)CC2)C[C@H]1c1ccc(Cl)c(F)c1` [Example 83, {(3S,4R)-4-(4-Chloro-3-fluoro-phenyl)-1-[5′-(1-hydroxy-1-methyl-ethyl)-3,4,5,6-tetrahydro-2H-[1,2′]bipyridinyl-4-carbonyl]-pyrrolidin-3-yl}-ethyl-carbamic acid 4-fluoro-phenyl ester] showed a Ki of 3.8 nM. `CCN(C(=O)Oc1ccccc1F)[C@@H]1CN(C(=O)C2CCN(C(=O)C3(C)COC3)CC2)C[C@H]1c1ccc(Cl)cc1` [Example 84, {(3S,4R)-4-(4-Chloro-phenyl)-1-[1-(3-methyl-oxetane-3-carbonyl)-piperidine-4-carbonyl]-pyrrolidin-3-yl}-ethyl-carbamic acid 2-fluoro-phenyl ester] gave a Ki of 29.8 nM. With `CCN(C(=O)Oc1ccccc1F)[C@@H]1CN(C(=O)C2CCN(C(=O)C3(C#N)CC3)CC2)C[C@H]1c1ccc(Cl)cc1` [Example 85, {(3S,4R)-4-(4-Chloro-phenyl)-1-[1-(1-cyano-cyclopropanecarbonyl)-piperidine-4-carbonyl]-pyrrolidin-3-yl}-ethyl-carbamic acid 2-fluoro-phenyl ester] the Ki was 23.3 nM. In the case of `CCN(C(=O)Oc1ccc(F)cc1)[C@@H]1CN(C(=O)C2CCN(C(=O)C3CCC3)CC2)C[C@H]1c1ccc(Cl)cc1` [Example 87, [(3S,4R)-4-(4-Chloro-phenyl)-1-(1-cyclobutanecarbonyl-piperidine-4-carbonyl)-pyrrolidin-3-yl]-ethyl-carbamic acid 4-fluoro-phenyl ester], the Ki is reported as 2.1 nM. With `CCN(C(=O)Oc1ccc(F)cc1)[C@@H]1CN(C(=O)C2CCN(C(=O)C3(C)COC3)CC2)C[C@H]1c1ccc(Cl)cc1` [Example 88, {(3S,4R)-4-(4-Chloro-phenyl)-1-[1-(3-methyl-oxetane-3-carbonyl)-piperidine-4-carbonyl]-pyrrolidin-3-yl}-ethyl-carbamic acid 4-fluoro-phenyl ester] the Ki was 5.6 nM.

Same assay, conditions: read-out: Data Ki (hNK-3 receptor affinity)
`CCN(C(=O)Oc1ccc(F)cc1)[C@@H]1CN(C(=O)C2CCN(C(=O)C3(C(F)(F)F)CC3)CC2)C[C@H]1c1ccc(Cl)c(F)c1` [Example 71, {(3S,4R)-4-(4-Chloro-3-fluoro-phenyl)-1-[1-(1-trifluoromethyl-cyclopropanecarbonyl)-piperidine-4-carbonyl]-pyrrolidin-3-yl}-ethyl-carbamic acid 4-fluoro-phenyl ester] was tested, and the Ki was 4 nM. For `CCN(C(=O)Oc1ccc(F)cc1)[C@@H]1CN(C(=O)C2CCN(C(=O)C3(C#N)CC3)CC2)C[C@H]1c1ccc(Cl)c(F)c1` [Example 72, {(3S,4R)-4-(4-Chloro-3-fluoro-phenyl)-1-[1-(1-cyano-cyclopropanecarbonyl)-piperidine-4-carbonyl]-pyrrolidin-3-yl}-ethyl-carbamic acid 4-fluoro-phenyl ester], the Ki was 2 nM. `CCN(C(=O)Oc1ccc(F)cc1)[C@@H]1CN(C(=O)C2CCN(C(=O)C3CCOC(C)(C)C3)CC2)C[C@H]1c1ccc(Cl)c(F)c1` (stereo partly drawn) [Example 73, {(3S,4R)-4-(4-Chloro-3-fluoro-phenyl)-1-[1-(2,2-dimethyl-tetrahydro-pyran-4-carbonyl)-piperidine-4-carbonyl]-pyrrolidin-3-yl}-ethyl-carbamic acid 4-fluoro-phenyl ester] was tested, and the Ki was 3 nM. For `CCN(C(=O)Oc1ccc(F)cc1)[C@@H]1CN(C(=O)C2CCN(C(=O)c3ccc(F)cc3)CC2)C[C@H]1c1ccc(Cl)c(F)c1` [Example 77, {(3S,4R)-4-(4-Chloro-3-fluoro-phenyl)-1-[1-(4-fluoro-benzoyl)-piperidine-4-carbonyl]-pyrrolidin-3-yl}-ethyl-carbamic acid 4-fluoro-phenyl ester], the Ki was 4 nM. For `CCN(C(=O)Oc1ccccc1F)[C@@H]1CN(C(=O)C2CCN(C(=O)c3ccc(C(F)(F)F)cn3)CC2)C[C@H]1c1ccc(Cl)cc1` [Example 86, {(3S,4R)-4-(4-Chloro-phenyl)-1-[1-(5-trifluoromethyl-pyridine-2-carbonyl)-piperidine-4-carbonyl]-pyrrolidin-3-yl}-ethyl-carbamic acid 2-fluoro-phenyl ester], the Ki was 70.7 nM.
